Patent US20260209777A1, “TARGETING GLYCOSYLPHOSPHATIDYLINOSITOL (GPI) PATHWAY PROTEINS TO TREAT OVARIAN CANCER” (UNIVERSITY OF MASSACHUSETTS, priority 2023, published 2026)

Tests used:
OVCAR8 cells = test: In vitro phagocytosis assay of OVCAR8 cells by PBMC-derived M2 macrophages; format: cell-based, human; conditions: bestatin 20 μM; for macrophage-mediated phagocytosis: OVCAR8, tosedostat 20 μM, ARM1 2 μM, vs DMSO; for phagocytosis of OVCAR8 cells: tosedostat 10 μM vs DMSO, anti-CD24 antibody (clone SN3) vs IgG (FIG. 9C)
Text: Macrophage Generation and Stimulation: Primary human donor-derived macrophages were generated as described previously (Martinez, Curr Protocol Immunol 2012, Chapter 14:14.28.1-14.28.23). In brief, Leukopaks from anonymous donors were obtained from the Rhode Island Blood (Providence, RI) and peripheral blood […] (PBMCs) were isolated by density gradients centrifugation using Ficoll Paque Plus (Sigma-Aldrich, Cat #17-1440-02) followed by RBC lysis using RBC lysis buffer (eBioscience, Cat #00-4333-57). For monocyte isolation, PBMCs were incubated in Monocyte Attachment Medium (Sigma-Aldrich, Cat #C-28051) for 1 hour at 37° C. and 5% CO2 and then washed three times in Iscove's Modified Dulbecco's Medium (IMDM) (Gibco, Cat #12440053) to remove non-adherent cells. The remaining monocytes were detached and seeded in 96-well plates and cultured at 37° C. and 5% CO2 in IMDM supplemented with 10% FBS (Atlanta Biologicals, Cat #S11550) and 20 ng/ml recombinant human M-CSF (Peprotech, Cat #AF-300-25). After 4 days monocytes were then treated with 20 ng/ml recombinant human IL-4 (Peprotech, Cat #200-04) and 10 ng/mL recombinant human IL-10 (PeproTech, Cat #200-10) for another 3-4 days to obtain M2 polarized macrophages. Macrophage differentiation was confirmed morphologically using microscopy. M2-macrophage polarization was confirmed by immunophenotyping of the M2 marker CD206 using PE-conjugated anti-human anti-CD206 antibody (BioLegend, Cat #321106, clone 15-2, 1:100 dilution). In vitro Phagocytosis Assays: To facilitate the quantification of phagocytic events, we adapted a microscopy-based fluorescence phagocytosis […] al., J Immunol Methods 2009, 342(1-2):71-7; Lindner et al., Biotechniques 2020, 68(5):245-250) for use with a Celigo imaging cytometer. […] Cells were incubated with pHrodo Red, SE (Invitrogen, Cat #P36600) on ice for 30 min and then co-cultured with PBMC-derived M2 macrophages (prepared as described above) at a ratio of 1:2 (OVCAR8/B cells: macrophages) for 2 hours in a humidified 5% CO2 incubator at 37° C. Phagocytic events were quantified by counting the number of red fluorescent (pHrodo+) cells per well using a Celigo Imaging Cytometer (Nexcelom). EmGFP was used for the visualization of cancer cells in imaging Phagocytic events were also quantified using a previously-described flow cytometry-based assay (Barkal et al., Nature 2019, 572(7769):392-396; […] et al., Biomedicines 2022, 10(5):1175). In brief, M2 macrophages co-cultured with OVCAR8/EmGFP-luc cells were detached using TrypLE Express (GibcoTM, cat #12604013), stained with APC anti-human CD11b clone ICRF44 (BioLegend, Cat #982604) and analyzed by flow cytometry (BioRad ZE5). Double-positive EmGFP+CD11b+ cells were considered phagocytic events.

[1] = test system: CD24 cell surface expression in OVCAR8 cells; test: CD24 flow cytometry analysis in OVCAR8 cells; format: cell-based, human; conditions: for CD24 cell surface expression (MFI): OVCAR8, 3 days, bestatin 10 or 20 μM, tosedostat 5 or 10 μM, ARM1 1 or 2 μM, vs DMSO
Experimental: Flow Cytometry Analysis: For cell surface protein staining, 1×10^5-1×10^6 cells were first incubated with Fc receptor blocking solution, Human TruStain FcXTM (BioLegend, Cat #422301) for 10 minutes at room temperature. Cells were washed once in FACS buffer (1×PBS, 1.0% bovine serum albumin (BSA) (Sigma) and 0.2% sodium azide (Sigma), and then incubated with antibodies (given below) for 30 minutes at 4° C. in the dark. Cells were also stained with 7-AAD (Biolegend, Cat #420404) for dead cell exclusion, and flow cytometry analysis was performed using a Bio-Rad ZE5 Cell Analyzer. Following antibodies used in this study (all antibodies were used at 1:50 dilution unless otherwise noted): APC anti-human CD24 (BioLegend, Cat #311118, clone ML5), PE anti-human CD24 (eBioscience, Cat #12-0247-42, clone SN3), APC anti-human CD47 (BioLegend, Cat #323124, clone CC2C6), APC anti-human § 2-microglobulin (BioLegend, Cat #395711, clone […]), PE anti-human HLA-A2 (MHC-class I) (BioLegend, Cat #343305, clone BB7.2), APC anti-human CD11b (BioLegend, Cat #982604, clone ICRF44), APC anti-mouse F4/80 antibody (BioLegend, Cat #123116, clone BM8), APC-streptavidin (Thermo Fisher Scientific, Cat #SA1005, 1:100 dilution), PE anti-Calreticulin (Invitrogen, Catalog #MA5-15382, 1:200 dilution). For intracellular staining, cells were fixed with 1% paraformaldehyde for 5 min and permeabilized using the True-Nuclear Transcription Factor Buffer Set (BioLegend, Cat #424401) before the addition of the antibody. Small Molecule Inhibitor and Drug Treatments: OVCAR8 or SKOV3 cells were treated for 3 days with bestatin (Ubenimex) (SelleckChem, Cat #S1591) at 5, 10 or 20 μM (as indicated in the figure legends), Tosedostat (Medchem Express, Cat #HY-14807) at 5 μM or 10 μM (as indicated in the figure legends) or ARM-1 (Medchem Express, Cat #HY-W027340) at 1, or 2 μM (as indicated in the figure legends). Inhibitors were replenished every 24 hours. DMSO (Sigma Aldrich, Cat #D8418) was used as a vehicle. OVCAR8 cells were treated with Docetaxel (SelleckChem, Cat #S1148) at 100 nM or Carboplatin (SelleckChem, Cat #S1215 at 100 nM or Doxorubicin (SelleckChem, Cat #E2516) at 50 nM for 12 hours.

| Compound | macrophage-mediated phagocytosis (OVCAR8 cells) | phagocytosis of OVCAR8 cells (OVCAR8 cells) | CD24 cell surface expression (MFI) [1] | total CD24 levels following permeabilization of cells ([1]; OVCAR8, 20 μM bestatin, permeabilized (FIG. 6E)) | ability to decrease CD24 cell surface expression after knockdown of PEPT1 or PEPT2 ([1]; OVCAR8 expressing PEPT1 or PEPT2 shRNA, 20 μM bestatin (FIG. 7C)) |
| --- | --- | --- | --- | --- | --- |
| CC(C)C[C@@H](C(=O)N[C@H](C(=O)OC1CCCC1)c1ccccc1)[C@H](O)C(=O)NO [tosedostat] | increased | susceptible | reduced | – | – |
| CC(C)C[C@H](NC(=O)[C@@H](O)[C@H](N)Cc1ccccc1)C(=O)O [bestatin] | substantially increased | susceptible | reduced CD24 cell surface expression in a dose-dependent manner | no significant effect | abrogated |
